The CheMixHub viscosity set

Test: xn = mol fraction of the nth substance listed

CCOC(=O)CCl + CCCCCCC
viscosity [mPa·s], 101.33 kPa
Conditions | x1 = 0.1037 | x1 = 0.203 | x1 = 0.3009 | x1 = 0.4005 | x1 = 0.4992 | x1 = 0.6048 | x1 = 0.705 | x1 = 0.8022 | x1 = 0.8954
298.15 K | 0.419 | 0.45 | 0.484 | 0.53 | 0.585 | 0.651 | 0.726 | 0.817 | 0.93
303.15 K | 0.398 | 0.424 | 0.457 | 0.498 | 0.545 | 0.608 | 0.676 | 0.761 | 0.859
308.15 K | 0.378 | 0.402 | 0.432 | 0.469 | 0.522 | 0.569 | 0.634 | 0.71 | 0.8

COC(=O)c1ccccc1 + CCCCCCC
viscosity [mPa·s], 101.3 kPa
Conditions | x1 = 0.0999 | x1 = 0.196 | x1 = 0.3001 | x1 = 0.3974 | x1 = 0.5004 | x1 = 0.5978 | x1 = 0.6984 | x1 = 0.8033 | x1 = 0.9017
298.15 K | 0.425 | 0.464 | 0.533 | 0.601 | 0.701 | 0.814 | 0.968 | 1.183 | 1.435
308.15 K | 0.382 | 0.418 | 0.472 | 0.535 | 0.616 | 0.708 | 0.839 | 1.008 | 1.197
318.15 K | 0.346 | 0.378 | 0.422 | 0.475 | 0.539 | 0.62 | 0.72 | 0.86 | 1.024

COC(=O)c1ccccc1 + CC#N
viscosity [mPa·s], 101.33 kPa
Conditions | x1 = 0.134 | x1 = 0.255 | x1 = 0.373 | x1 = 0.48 | x1 = 0.57 | x1 = 0.666 | x1 = 0.752 | x1 = 0.837 | x1 = 0.922
293.15 K | 0.444 | 0.476 | 0.515 | 0.624 | 0.676 | 0.805 | 0.958 | 1.128 | 1.508
303.15 K | 0.4 | 0.43 | 0.46 | 0.551 | 0.595 | 0.695 | 0.814 | 0.95 | 1.226
313.15 K | 0.365 | 0.387 | 0.41 | 0.5 | 0.521 | 0.608 | 0.701 | 0.811 | 1.016
323.15 K | 0.329 | 0.351 | 0.367 | 0.446 | 0.467 | 0.531 | 0.602 | 0.691 | 0.854

CC(C)OCCO + O=C1CCCN1
298.15 K, 101 kPa
Conditions | viscosity [mPa·s]
x1 = 0.0071 | 13.9
x1 = 0.0159 | 13.59
x1 = 0.0316 | 12.93
x1 = 0.0611 | 11.92
x1 = 0.1046 | 10.57
x1 = 0.1603 | 9.092
x1 = 0.2294 | 7.709
x1 = 0.2699 | 7.051
x1 = 0.3267 | 6.264
x1 = 0.3725 | 5.709
x1 = 0.4121 | 5.308
x1 = 0.4371 | 5.073
x1 = 0.4623 | 4.846
x1 = 0.5125 | 4.439
x1 = 0.5675 | 4.067
x1 = 0.6092 | 3.792
x1 = 0.6833 | 3.388
x1 = 0.7418 | 3.111
x1 = 0.7986 | 2.871
x1 = 0.8498 | 2.672
x1 = 0.888 | 2.528
x1 = 0.9155 | 2.412
x1 = 0.943 | 2.304
x1 = 0.9583 | 2.252
x1 = 0.9786 | 2.193

CCCCOCCO + CCC(C)=O
298.15 K, 101 kPa
Conditions | viscosity [mPa·s]
x2 = 0.154 | 2.106
x2 = 0.2906 | 1.609
x2 = 0.4126 | 1.234
x2 = 0.5221 | 0.939
x2 = 0.6211 | 0.727
x2 = 0.7108 | 0.607
x2 = 0.7927 | 0.519
x2 = 0.8676 | 0.466
x2 = 0.9365 | 0.416

CCOCCOCCOCC + CCOC(=O)OCC
viscosity [mPa·s], 101.33 kPa
Conditions | 298.15 K | 308.15 K | 318.15 K
x1 = 0.0221 | 0.763 | 0.667 | 0.584
x1 = 0.0409 | 0.776 | 0.675 | 0.592
x1 = 0.0945 | 0.812 | 0.699 | 0.609
x1 = 0.1858 | 0.863 | 0.741 | 0.643
x1 = 0.2214 | 0.89 | 0.758 | 0.656
x1 = 0.2775 | 0.923 | 0.784 | 0.677
x1 = 0.3669 | 0.972 | 0.822 | 0.707
x1 = 0.4971 | 1.041 | 0.879 | 0.747
x1 = 0.5997 | 1.092 | 0.917 | 0.775
x1 = 0.6836 | 1.133 | 0.947 | 0.801
x1 = 0.7747 | 1.17 | 0.979 | 0.825
x1 = 0.8683 | 1.214 | 1.009 | 0.849
x1 = 0.9296 | 1.239 | 1.027 | 0.862
x1 = 0.9694 | 1.255 | 1.04 | 0.871

O=C(OCc1ccccc1)c1ccccc1 + c1ccccc1
viscosity [mPa·s], 101 kPa
Conditions | x1 = 0.11 | x1 = 0.1886 | x1 = 0.27 | x1 = 0.4124 | x1 = 0.52 | x1 = 0.5911 | x1 = 0.7827 | x1 = 0.8954
298.15 K | 0.9057 | 1.196 | 1.514 | 2.301 | 3.073 | 3.584 | 5.478 | 6.883
313.15 K | 0.7205 | – | 1.161 | – | 2.18 | – | – | –

COC(=O)c1ccccc1 + CCCO
viscosity [mPa·s], 100 kPa
Conditions | x1 = 0.05 | x1 = 0.1 | x1 = 0.2 | x1 = 0.3 | x1 = 0.4 | x1 = 0.5 | x1 = 0.6 | x1 = 0.65 | x1 = 0.8 | x1 = 0.9
293.2 K | 2.016 | 1.887 | 1.724 | 1.65 | 1.622 | 1.621 | 1.649 | 1.669 | 1.76 | 1.872
298.2 K | 1.794 | 1.685 | 1.547 | 1.487 | 1.464 | 1.466 | 1.492 | 1.511 | 1.594 | 1.693
303.2 K | 1.601 | 1.509 | 1.395 | 1.344 | 1.327 | 1.332 | 1.357 | 1.375 | 1.453 | 1.54
308.2 K | 1.434 | 1.356 | 1.262 | 1.22 | 1.209 | 1.215 | 1.239 | 1.257 | 1.33 | 1.41
313.2 K | 1.288 | 1.223 | 1.145 | 1.112 | 1.104 | 1.113 | 1.138 | 1.154 | 1.223 | 1.297

CCCCCCCCN(CCCCCCCC)CCCCCCCC + CCCCCC
Conditions | viscosity [mPa·s]
298 K, 101.3 kPa, x1 = 0.00584 | 0.331
